# How the values were obtained:
# blackgrass = assay: Test B pre/postemergence blackgrass; format: in vivo, Alopecurus myosuroides
# Method in brief: (§1)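 Response is a visual 0-to-10 score relative to untreated plants, where 0 means no effect and 10 means complete control, taken twelve to sixteen days after application. Treatments went onto soil at planting and onto foliage of 1- to 4-leaf plants, using a surfactant-containing non-phytotoxic solvent.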
# surinam grass = assay: Test B pre/postemergence surinam grass; format: in vivo, Brachiaria decumbens
# Method in brief: as §1
# cocklebur = assay: Test B pre/postemergence cocklebur; format: in vivo, Xanthium strumarium
# Method in brief: as §1
# corn = assay: Test B pre/postemergence corn; format: in vivo, Zea mays
# Method in brief: as §1
# crabgrass = assay: Test B pre/postemergence crabgrass; format: in vivo, Digitaria sanguinalis
# Method in brief: as §1
# giant foxtail = assay: Test B pre/postemergence giant foxtail; format: in vivo, Setaria faberii
# Method in brief: as §1
# morningglory = assay: Test B pre/postemergence morningglory; format: in vivo, Ipomoea hederacea
# Method in brief: as §1
# pigweed = assay: Test B pre/postemergence pigweed; format: in vivo, Amaranthus retroflexus
# Method in brief: as §1
# rape = assay: Test B pre/postemergence rape; format: in vivo, Brassica napus
# Method in brief: as §1
# soybean = assay: Test B pre/postemergence soybean; format: in vivo, Glycine max
# Method in brief: as §1
# sugar beet = assay: Test B pre/postemergence sugar beet; format: in vivo, Beta vulgaris
# Method in brief: as §1
# velvetleaf = assay: Test B pre/postemergence velvetleaf; format: in vivo, Abutilon theophrasti
# Method in brief: as §1
# wheat = assay: Test B pre/postemergence wheat; format: in vivo, Triticum aestivum
# Method in brief: as §1
# wild oat = assay: Test B pre/postemergence wild oat; format: in vivo, Avena fatua
# Method in brief: as §1
# purple nutsedge = assay: Test B pre/postemergence purple nutsedge; format: in vivo, Cyperus rotundus
# Method in brief: as §1
# rice = assay: Test B flood test rice; format: in vivo, Oryza sativa
# Method in brief: (§2)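 Plants were grown to the 2-leaf stage before treatment with test chemical, then held in a greenhouse for twelve to sixteen days. Injury was visually rated against untreated controls on a 0–10 scale, where 0 is no effect and 10 is complete control.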
# smallflower flatsedge = assay: Test B flood test smallflower flatsedge; format: in vivo, Cyperus difformis
# Method in brief: as §2
# duck salad = assay: Test B flood test duck salad; format: in vivo, Heteranthera limosa; conditions: for Plant response rating, Ducksalad: scale 0 to 10, 0 is no effect, 10 is complete control; for Ducksalad plant response rating: scale of 0 to 10 where 0 is no effect and 10 is complete control
# Method in brief: as §2
# bamyardgrass = assay: Test B flood test barnyardgrass; format: in vivo, Echinochloa crus-galli; conditions: for Plant response rating, Barnyardgrass: scale 0 to 10, 0 is no effect, 10 is complete control; for Barnyardgrass plant response rating: scale of 0 to 10 where 0 is no effect and 10 is complete control
# Method in brief: as §2
# [1] = Postemergence, Rate 125 g/ha, scale 0 to 10, 0 is no effect, 10 is complete control
# [2] = Postemergence, Rate 250 g/ha, scale 0 to 10, 0 is no effect, 10 is complete control
# [3] = Postemergence, Rate 500 g/ha, scale of 0 to 10 where 0 is no effect and 10 is complete control
# [4] = Preemergence, Rate 62 g/ha, scale 0 to 10 (0 no effect, 10 complete control)
# [5] = Preemergence, Rate 125 g/ha, scale of 0 to 10 where 0 is no effect and 10 is complete control
# [6] = Preemergence, Rate 250 g/ha, scale of 0 to 10 where 0 is no effect and 10 is complete control
# [7] = Preemergence, Rate 500 g/ha, scale 0 to 10, 0 is no effect, 10 is complete control
# [8] = Rate 62 g/ha, Postemergence, scale of 0 to 10 where 0 is no effect and 10 is complete control
# [9] = Preemergence, Rate 250 g/ha, scale 0 to 10, 0 is no effect, 10 is complete control
# [10] = Postemergence section (flood test species), Rate 500 g/ha, scale of 0 to 10 where 0 is no effect and 10 is complete control
# [11] = flood test species, listed under Postemergence, Rate 250 g/ha, scale 0 to 10, 0 is no effect, 10 is complete control
# [12] = Postemergence (flood test), Rate 125 g/ha
# [13] = Postemergence section (flood test species), Rate 500 g/ha
# [14] = Rate 62 g/ha, Postemergence (flood test species)
# [15] = flood test species, listed under Postemergence, Rate 250 g/ha
smiles,measurement,setting,value
C=C(C)CCn1c(=O)on(C(=O)N(c2ccccc2)C(C)C)c1=O [Compound 418],"Plant response rating, Blackgrass",blackgrass; [1],4
same,"Plant response rating, Blackgrass",blackgrass; [2],4
same,Blackgrass plant response rating,blackgrass; [3],6
same,"Plant response rating, Blackgrass",blackgrass; [4],4
same,"Plant response rating, Blackgrass",blackgrass; [5],4
same,Blackgrass plant response rating,blackgrass; [6],7
same,Blackgrass plant response rating,blackgrass; [7],0
same,Blackgrass plant response rating,blackgrass; [8],2
same,"Plant response rating, B. signalgrass",surinam grass; [1],0
same,"Plant response rating, B. signalgrass",surinam grass; [2],0
same,B. signalgrass plant response rating,surinam grass; [3],2
same,"Plant response rating, B. signalgrass",surinam grass; [4],0
same,"Plant response rating, B. signalgrass",surinam grass; [5],3
same,B. signalgrass plant response rating,surinam grass; [6],6
same,B. signalgrass plant response rating,"surinam grass; Preemergence, Rate 500 g/ha, scale of 0 to 10 where 0 is no effect and 10 is complete control",6
same,B. signalgrass plant response rating,surinam grass; [8],0
same,"Plant response rating, Cocklebur",cocklebur; [1],0
same,"Plant response rating, Cocklebur",cocklebur; [2],0
same,Cocklebur plant response rating,cocklebur; [3],0
same,"Plant response rating, Cocklebur",cocklebur; [4],0
same,"Plant response rating, Cocklebur",cocklebur; [5],0
same,Cocklebur plant response rating,cocklebur; [9],0
same,Cocklebur plant response rating,cocklebur; [7],0
same,Cocklebur plant response rating,cocklebur; [8],0
same,"Plant response rating, Corn",corn; [1],0
same,"Plant response rating, Corn",corn; [2],0
same,Corn plant response rating,corn; [3],0
same,"Plant response rating, Corn",corn; [4],0
same,"Plant response rating, Corn",corn; [5],0
same,Corn plant response rating,corn; [9],2
same,Corn plant response rating,corn; [8],0
same,"Plant response rating, Crabgrass",crabgrass; [1],0
same,"Plant response rating, Crabgrass",crabgrass; [2],3
same,Crabgrass plant response rating,crabgrass; [3],6
same,"Plant response rating, Crabgrass",crabgrass; [4],6
same,"Plant response rating, Crabgrass",crabgrass; [5],8
same,Crabgrass plant response rating,crabgrass; [9],10
same,Crabgrass plant response rating,crabgrass; [7],10
same,Crabgrass plant response rating,crabgrass; [8],0
same,"Plant response rating, Giant foxtail",giant foxtail; [1],0
same,"Plant response rating, Giant foxtail",giant foxtail; [2],8
same,Giant foxtail plant response rating,giant foxtail; [3],9
same,"Plant response rating, Giant foxtail",giant foxtail; [4],7
same,"Plant response rating, Giant foxtail",giant foxtail; [5],8
same,Giant foxtail plant response rating,giant foxtail; [9],10
same,Giant foxtail plant response rating,giant foxtail; [7],10
same,Giant foxtail plant response rating,giant foxtail; [8],0
same,"Plant response rating, Morningglory",morningglory; [2],8
same,Morningglory plant response rating,morningglory; [3],10
same,"Plant response rating, Morningglory",morningglory; [4],0
same,"Plant response rating, Morningglory",morningglory; [5],0
same,Morningglory plant response rating,morningglory; [9],0
same,Morningglory plant response rating,morningglory; [7],0
same,"Plant response rating, Redroot pigweed",pigweed; [2],0
same,Redroot pigweed plant response rating,pigweed; [3],0
same,"Plant response rating, Redroot pigweed",pigweed; [4],2
same,"Plant response rating, Redroot pigweed",pigweed; [5],3
same,Redroot pigweed plant response rating,pigweed; [9],8
same,Redroot pigweed plant response rating,pigweed; [7],8
same,"Plant response rating, Rape",rape; [2],0
same,Rape plant response rating,rape; [3],0
same,"Plant response rating, Rape",rape; [4],0
same,"Plant response rating, Rape",rape; [5],0
same,Rape plant response rating,rape; [9],0
same,Rape plant response rating,rape; [7],9
same,"Plant response rating, Soybean",soybean; [2],4
same,Soybean plant response rating,soybean; [3],6
same,"Plant response rating, Soybean",soybean; [4],0
same,"Plant response rating, Soybean",soybean; [5],0
same,Soybean plant response rating,soybean; [9],0
same,Soybean plant response rating,soybean; [7],0
same,"Plant response rating, Sugarbeets",sugar beet; [2],0
same,Sugarbeets plant response rating,sugar beet; [3],0
same,"Plant response rating, Sugarbeets",sugar beet; [4],0
same,"Plant response rating, Sugarbeets",sugar beet; [5],2
same,Sugarbeets plant response rating,sugar beet; [9],2
same,Sugarbeets plant response rating,sugar beet; [7],2
same,"Plant response rating, Velvetleaf",velvetleaf; [2],0
same,Velvetleaf plant response rating,velvetleaf; [3],0
same,"Plant response rating, Velvetleaf",velvetleaf; [4],0
same,"Plant response rating, Velvetleaf",velvetleaf; [5],3
same,Velvetleaf plant response rating,velvetleaf; [9],5
same,Velvetleaf plant response rating,velvetleaf; [7],6
same,Wheat plant response rating,wheat; [3],0
same,"Plant response rating, Wheat",wheat; [4],0
same,"Plant response rating, Wheat",wheat; [5],0
same,Wheat plant response rating,wheat; [9],0
same,Wheat plant response rating,wheat; [7],2
same,Wild oats plant response rating,wild oat; [3],3
same,"Plant response rating, Wild oats",wild oat; [4],0
same,"Plant response rating, Wild oats",wild oat; [5],0
same,Wild oats plant response rating,wild oat; [9],0
same,Wild oats plant response rating,wild oat; [7],0
same,"Plant response rating, Nutsedge",purple nutsedge; [2],0
same,Nutsedge plant response rating,purple nutsedge; [3],0
same,"Plant response rating, Nutsedge",purple nutsedge; [4],0
same,"Plant response rating, Nutsedge",purple nutsedge; [5],0
same,Nutsedge plant response rating,purple nutsedge; [9],0
same,Nutsedge plant response rating,purple nutsedge; [7],0
same,Rice plant response rating,rice; [10],0
same,"Plant response rating, Rice",rice; [11],0
same,S. Flatsedge plant response rating,smallflower flatsedge; [10],4
same,"Plant response rating, S. Flatsedge",smallflower flatsedge; [11],4
same,"Plant response rating, Ducksalad",duck salad; [12],0
same,Ducksalad plant response rating,duck salad; [13],2
same,Ducksalad plant response rating,duck salad; [14],0
same,"Plant response rating, Ducksalad",duck salad; [15],2
same,"Plant response rating, Barnyardgrass",bamyardgrass; [12],0
same,Barnyardgrass plant response rating,bamyardgrass; [13],0
same,Barnyardgrass plant response rating,bamyardgrass; [14],0
same,"Plant response rating, Barnyardgrass",bamyardgrass; [15],0

# From patent publication US6737383B1, “Herbicidal oxadiazolidines” (priority 1999, dated 2004)
